Measured values reported in patent US20240130988A1, “Use of stilbene compounds in the preparation of anti-tumor drugs” (Guangzhou AnHao Pharmaceutical Technology CO., LTD., priority 2022, published 2024).
Marks after values point to notes of the source that are not given here.

Tests used:
[1] = tested on: human prostate cell LNCaP; assay: Human prostate cell LNCaP transplanted tumor in nude mice; assay type: in vivo, BALB/C nude mice
Procedure: A human prostate cell LNCaP model transplanted into nude mice was used in the experiment to investigate the anti-tumor effect of test compounds.
(§1) Preparation: The compound was prepared as the injection at the desired concentration with sterile normal saline, prior to administration.
(§2) Animal strain: BALB/C nude mice (SPF grade), weight: 19-21 g, gender: male.
(§3) Number of animals in each treatment group: 8; number of animals in the control group: >12.
(§4) The tumor blocks of human prostate cell LNCaP with good growth were cut into uniform small pieces of 3 mm under sterile conditions, and then subcutaneously inoculated into the right armpit of each mouse with a cannula. The mice were divided into 9 groups, 8 mice for each treatment group, while >12 mice were included in the control group,
(§5) 14 days after inoculation, the average volume of the tumor block was about 100 mm^3. The animals were regrouped based on the size of the tumor, and the animals with tumors that were too large and too small were sifted out, For each group, the average volume of tumors was basically the same, and then the mice were initially treated with test compounds. The mice were intraperitoneally injected once a day for 14 days, at a dosage of 0.2 mL/20 g body weight; the mice in the control group were given the same volume of sterile normal saline. From the 14th day of inoculation, the long diameter a (mm) of the tumor, together with the perpendicular short diameter b (mm), was measured using a digital electronic caliper, twice a week. The calculation formula of tumor volume is: TV=ab^2/2, and the formula for calculating the relative tumor volume is: RTV=Vt/Vb, wherein Vo denotes the tumor volume measured when the mice were divided into groups (i.e. d1), and Vt denotes the tumor volume from each measurement.
(§6) The result determination is based on the following formula: […]

human lung cancer A549 = assay: Human lung cancer A549 transplanted tumors in nude mice; assay type: in vivo, BALB/C nude mice; details: A549, 400 mg/kg ig × 14; for inhibition in vivo at 400 mg/kg: Mus musculus, po, read-out: Tumor inhibitory rate %
Procedure: In this experiment, a human lung cancer A549 model transplanted into nude mice was selected to study the anti-tumor effect of test compounds. The mice were treated at a dosage of 400 mg/kg by gavage for 14 days, and the tumor inhibition rate against human lung cancer A549 was measured.
Preparation: The compound was prepared as the solution at the desired concentration with distilled water, prior to administration.
Animal strain: BALB/C nude mice (SPF grade), weight: 19-21 g, gender: male. Number of animals in each treatment group: 8; Number of animals in the control group: >12.
Lung cancer A549 tumor blocks with good growth were chosen and cut into uniform small pieces of 3 mm under sterile conditions, and then subcutaneously inoculated into the right armpit of each mouse with a cannula. These mice were divided into 9 groups, 8 mice for each treatment group, while more than 12 mice were included in the control group.
14 days after inoculation, the average volume of the tumor mass was about 100 mm^3. The animals were regrouped based on the size of the tumor, and the mice with tumors that were too large and too small were eliminated. For each group, the average volume of tumors was basically the same, and then the mice were treated with test compounds. The mice in the treatment groups were administered once a day by gavage for 14 successive days, at a dosage of 0.5 mL/20 g body weight; the mice in the control group were given the same volume of physiological saline. From the 14th day of inoculation, the long diameter a (mm) of the tumor, together with the perpendicular short diameter b (mm), was measured using a digital electronic caliper, twice a week. The calculation formula of tumor volume is: TV=ab^2/2, and the formula for calculating the relative tumor volume is RTV=Vt/Vo, wherein Vo denotes the tumor volume measured when the mice were divided into groups (i.e. d1), and Vt is the tumor volume from each measurement.
as §6

[2] = tested on: human ovarian cancer A2780; assay: Human ovarian cancer A2780 transplanted tumor in nude mice; assay type: in vivo, BALB/C nude mice; details: A2780, 200 mg/kg ip × 14
Procedure: A human ovarian cancer A2780 model transplanted into nude mice was used in the experiment to investigate the anti-tumor effect of test compounds.
as §1, §2, §3
as §4, with “human ovarian cancer A2780 growing well” for “human prostate cell LNCaP with good growth”, “control group.” for “control group,”
as §5, with “sifted out.” for “sifted out,”, “volume is RTV=Vt/Vo,” for “volume is: RTV=Vt/Vb,”, “Vt is” for “Vt denotes”
as §6

[3] = tested on: nonfusion human umbilical vein endothelial cells (HUVEC); assay: TMT quantitative proteomics on nonfusion HUVEC; assay type: cell-based; details: 10 μM; for Differentially expressed proteins: more than 1.5 times or less than 0.67 times vs control; for Down-regulation / Up-regulation: number of proteins
Procedure: Nonfusion human umbilical vein endothelial cells (HUVEC) were used to simulate new tumor blood vessels, while confluent HUVECs were used to simulate normal blood vessels, to construct experimental models. Two different HUVECs were treated with the compound at the same dosage of 10 μM, to simulate the fusion cell state, and proteome samples were prepared. After preparation of peptide segments, the segments were labelled with TMT, and a quantitative proteomics analysis was carried out. The efficiency of TMT labeling was higher than 99.4%, and a total of 28372 peptide segments from 4934 proteins were characterized using a strict 1% FDR limit. Among them, 4909 quantifiable proteins were identified, indicating reliable quality. The nonfusion treatment groups and the fusion treatment groups were compared with their respective control groups, and the control group was used as a reference, with a significant difference of more than 1.5 times or less than 0.67 times as the protein score standard.
The total cell proteins of the samples in nonfusion cell groups and fusion cell groups were extracted separately, and 2 μg of protein samples were subjected to quality analysis, The quantitative proteomics experiments were carried out, and the protein concentration assay was performed by quantitative grayscale measurement.
Data analysis: The human protein database (Scientific name: Homo sapiens, 9606) was downloaded from UniProt, MaxQuant (v 1.5.5.1) search engine was used to search for the database. A total of 4934 proteins (4909 quantitative proteins) and 28372 peptide segments were identified by TMT quantitative proteomics experiments, with a labeling efficiency of more than 99%, and the complete digestion occupied 86.3%.

[4] = tested on: LLC (mouse lung cancer cells); assay: Enrichment of CD8+ cytotoxic T lymphocytes in tumor tissue, Lewis non-small cell lung cancer model of mice; assay type: in vivo; details: 400 mg/kg ip once a day for 10 days, CD8+ immunohistochemistry

SMILES | RTV (d 18) ([1]; 200 mg/kg ip × 14) | Tumor inhibitory rate % ([1]; 200 mg/kg ip × 14) | RTV (d 22) (human lung cancer A549) | inhibition in vivo at 400 mg/kg (human lung cancer A549) [%] | RTV (d 18) [2] | Tumor inhibitory rate % [2] | Differentially expressed proteins [3] | Down-regulation [3] | Up-regulation [3] | The ratio of distribution area in tumor tissues (%) ([4]; 400 mg/kg) | Tumor inhibitory rate % ([1]; 200 mg/kg ip × 14, 200 mg/kg) [%] | Tumor inhibitory rate % ([1]; 200 mg/kg ip × 14, listed as compound 4, 200 mg/kg) | Tumor inhibitory rate % (human lung cancer A549) | Tumor inhibitory rate % ([2]; listed as compound 6) | The ratio of distribution area in tumor tissues (%) [4] [%]
COc1ccc(/C=C(/C(=O)O)c2cc(OC)c(OC)c(OC)c2)c(O)c1O [Compound 1, (E)-3-(2,3-dihydroxy-4-methoxyphenyl)-2-(3,4,5-trimethoxylphenyl)acrylic acid] | 4.92 ± 0.82 | 56.27^## % | 4.27 ± 0.48 | 63.6 | 5.63 ± 0.72 | 45.39^## % | 323 | 296 | 7 | 6.265 ± 0.3673 |  |  |  |  | 
COc1cc(/C=C(/C(=O)O)c2cc(OC)c(OC)c(OC)c2)cc(OC)c1 [Compound 3, (E)-3-(3,5-dimethoxyphenyl)-2-(3,4,5-trimethoxyphenyl)acrylic acid] | 4.77 ± 0.71 | 60.87^## % | 4.52 ± 0.76 | 61.5 |  |  | 318 | 312 | 6 |  |  |  |  |  | 
COc1ccc(/C=C(/C(=O)O)c2cc(OC)c(OC)c(OC)c2)cc1F [Compound 4, (E)-3-(3-fluoro-4-methoxyphenyl)-2-(3,4,5-trimethoxyphenyl)acrylic acid] | 3.73 ± 0.60 |  | 5.23 ± 1.43 | 55.5 | 4.51 ± 0.67 | 56.26^## % | 307 | 302 | 5 |  | 69.40 | best inhibitory effect on prostate cancer |  |  | 
COc1ccc(/C=C(/C(=O)O)c2cc(OC)c(OC)c(OC)c2)cc1O [Compound 6, (E)-3-(3-hydroxy-4-methoxyphenyl)-2-(3,4,5-trimethoxyphenyl)acrylic acid] | 4.27 ± 0.92 | 64.97^# % | 2.51 ± 0.94 | 78.6 | 3.58 ± 0.49 | 65.28% | 312 | 307 | 5 |  |  |  | best inhibitory effect on lung cancer | best inhibitory effect on ovarian cancer | 7.249 ± 0.6689
COc1cc(/C(=C\c2cc(O)c(OC)c(F)c2)C(=O)O)cc(OC)c1OC [Compound 8, (E)-3-(5-fluoro-3-hydroxy-4-methoxyphenyl)-2-(3,4,5-trimethoxyphenyl)acrylic acid] | 6.72 ± 0.85 | 44.87^## % | 4.22 ± 0.75 | 64.1 | 5.21 ± 0.47 | 49.47^## % | 317 | 311 | 6 |  |  |  |  |  | 6.543 ± 0.7256
COc1ccc(/C=C(/C(=O)O)c2cc(OC)c(OC)c(OC)c2)c(F)c1O [Compound 9, (E)-3-(2-fluoro-3-hydroxy-4-methoxyphenyl)-2-(3,4,5-trimethoxyphenyl)acrylic acid] |  |  |  |  | 4.37 ± 0.62 | 57.61^# % | 296 | 291 | 5 |  |  |  |  |  | 6.258 ± 0.6573
COc1cc(/C=C(/C(=O)[O-])c2cc(OC)c(OC)c(OC)c2)cc(OC)c1F.[K+] [Compound 10] | 4.55 ± 0.81 | 62.67^# % |  |  | 4.26 ± 0.73 | 58.68^# % | 315 | 309 | 6 |  |  |  |  |  | 
COc1cc(/C(=C\c2cc(O)c(OC)c(O)c2)C(=O)O)cc(OC)c1OC [Compound 11, (E)-3-(3,5-dihydroxy-4-methoxyphenyl)-2-(3,4,5-trimethoxyphenyl)acrylic acid] |  |  | 4.07 ± 0.51 | 65.4 |  |  | 317 | 306 | 11 |  |  |  |  |  | 5.735 ± 0.5952
